Where “and” joins values, the source holds several entries; their conditions need not be identical. Equal entries are not always repeated. Entries after “also recorded” stand apart in the source; their conditions may differ. Where two headings read alike, the source gives them in different places. Marks after values point to notes of the source that are not given here. Each block holds one compound with its values, some of them ahead of it.
Key:
[1] = cited from earlier work
Adverse event monitoring = format: in vivo, NSCLC patients
[2] = format: in vivo, NSCLC patients; details: for AUC / Cmax: geomean; for Cmax: Cmax (CV %); for Cmax RD, PPI with milk vs. PPI with water (95% CI): n = 15
[3] = cited from earlier work; remark: listed apart in the source
[4] = Milk [n = 30], without and with esomeprazole
[5] = Water [n = 29], without and with esomeprazole

Tmax (IQR), median ([2]; No PPI with milk [n = 14]): 2.50 (2.00–3.00) hours
Interpatient variability (CV) in AUC24 ([2]; PPI (esomeprazole), with milk): 38%
Interpatient variability (CV) in AUC24 ([2]; PPI (esomeprazole), with water): 61%
Increase in Tmax with milk vs water ([2]; both study arms, non-significant): 0.5 h
Decrease in erlotinib AUC24 by esomeprazole ([2]; esomeprazole 40 mg once daily 3 h prior to erlotinib vs no esomeprazole, n = 9): 47% and ~50%
AUC ([2]; human, plasma, oral, AUC24 (CV %), No PPI [n = 9], patients in both study arms, corrected for coadministration with milk): 20100 ng·h/mL
AUC ([2]; human, plasma, oral, AUC24 (CV %), PPI [n = 9], patients in both study arms, corrected for coadministration with milk): 10600 ng·h/mL
AUC ([2]; human, plasma, oral, AUC24 (CV%), No PPI with milk [n = 14]): 22400 ng·h/mL
Cmax ([2]; human, plasma, oral, PPI [n = 9], patients in both study arms, corrected for coadministration with milk): 750 ng/mL
Cmax ([2]; human, plasma, oral, PPI with milk [n = 15]): 820 ng/mL
Tmax ([2]; human, plasma, po): 2.52 h
AUC ([2]; human, plasma, po, AUC24 (CV%), No PPI with water [n = 14]): 23000 ng·h/mL
Cmax ([2]; human, plasma, po, No PPI with water [n = 14]): 1850 ng/mL
Cmax ([2]; human, plasma, po, PPI with water [n = 15]): 810 ng/mL
Cmax RD, no-PPI with milk vs. no-PPI with water (95% CI) ([2]; n = 14): 6%
Cmax RD, PPI with milk vs. PPI with water (95% CI) [2]: 1%
Cmax RD, PPI with milk vs. PPI with water (95% CI) ([2]; listed as Erlotinib): 1.5% (− 12 to 17%)
Interpatient variability (CV) in AUC24 ([2]; no PPI, with milk): 35%
Interpatient variability (CV) in AUC24 ([2]; no PPI, with water): 37%
Decrease in AUC24 when administered with milk compared with water ([2]; non-PPI patients, non-significant): 3%
Structure (SMILES): C#Cc1cccc(Nc2ncnc3cc(OCCOC)c(OCCOC)cc23)c1 [erlotinib]
Increase in exposure ([1]; administered concomitantly with a high-fat meal ref 3): 33–66%
AUC increase ([1]; high-fat meal taken 2 h after erlotinib administration ref 22): 33%
Increase in AUC ([1]; high-fat meal, food and drug taken concomitantly ref 23): 66%
All events, Grade 1–2 (Adverse event monitoring; Baseline [n = 30]): 29 (97) n (%)
Alopecia, Grade 1–2 (Adverse event monitoring; Baseline [n = 30]): 12 (40) n (%)
Constipation, Grade 1–2 (Adverse event monitoring; Baseline [n = 30]): 5 (17) n (%)
Diarrhea, Grade 1–2 (Adverse event monitoring; Baseline [n = 30]): 6 (20) n (%)
Fatigue, Grade 1–2 (Adverse event monitoring; Baseline [n = 30]): 10 (33) n (%)
Nausea, Grade 1–2 (Adverse event monitoring; Baseline [n = 30]): 1 (3) n (%)
Pain, Grade 1–2 (Adverse event monitoring; Baseline [n = 30]): 5 (17) n (%)
Rash, Grade 1–2 (Adverse event monitoring; Baseline [n = 30]): 23 (77) n (%)
Serious adverse event, Grade 3 (Adverse event monitoring; Baseline [n = 30], spinal fracture, not related to study procedures): 1 (3%)^a n (%)
All events, Grade 1–2 (Adverse event monitoring; [4]): 28 (93) n (%)
All events, Grade 3 (Adverse event monitoring; [4]): 2 (6) n (%)
Alopecia, Grade 1–2 (Adverse event monitoring; [4]): 11 (37) n (%)
Constipation, Grade 1–2 (Adverse event monitoring; [4]): 3 (10) n (%)
Diarrhea, Grade 1–2 (Adverse event monitoring; [4]): 3 (10) n (%)
Fatigue, Grade 1–2 (Adverse event monitoring; [4]): 6 (20) n (%)
Nausea, Grade 1–2 (Adverse event monitoring; [4]): 3 (10) n (%)
Nausea, Grade 3 (Adverse event monitoring; [4]): 1 (3) n (%)
Pain, Grade 1–2 (Adverse event monitoring; [4]): 9 (30) n (%)
Rash, Grade 1–2 (Adverse event monitoring; [4]): 20 (67) n (%)
Rash, Grade 3 (Adverse event monitoring; [4]): 1 (3) n (%)
All events, Grade 1–2 (Adverse event monitoring; [5]): 28 (97) n (%)
Alopecia, Grade 1–2 (Adverse event monitoring; [5]): 11 (38) n (%)
Constipation, Grade 1–2 (Adverse event monitoring; [5]): 1 (3) n (%)
Diarrhea, Grade 1–2 (Adverse event monitoring; [5]): 3 (10) n (%)
Fatigue, Grade 1–2 (Adverse event monitoring; [5]): 10 (34) n (%)
Nausea, Grade 1–2 (Adverse event monitoring; [5]): 3 (10) n (%)
Pain, Grade 1–2 (Adverse event monitoring; [5]): 7 (24) n (%)
Rash, Grade 1–2 (Adverse event monitoring; [5]): 18 (62) n (%)
Difference in toxicities between milk and water periods (Adverse event monitoring; independent of study arm (with and without PPI)): No differences in toxicities were observed; also recorded: Patient-reported toxicity was equal between the milk and water groups, with and without proton pump inhibitors. Hence, cow’s milk can be used as a safe alternative to water for the administration of erlotinib. Concomitant treatment with esomeprazole should be avoided if possible
Patient-reported adverse events during study compared with baseline (Adverse event monitoring; overall): did not increase compared with baseline

Structure (SMILES): CS(=O)(=O)CCNCc1ccc(-c2ccc3ncnc(Nc4ccc(OCc5cccc(F)c5)c(Cl)c4)c3c2)o1 [lapatinib]
AUC increase ([1]; with a high-fat meal ref 3): up to 325%
AUC increase ([1]; with a low-fat meal ref 3): ≤ 200%

Structure (SMILES): Cc1cn(-c2cc(NC(=O)c3ccc(C)c(Nc4nccc(-c5cccnc5)n4)c3)cc(C(F)(F)F)c2)cn1 [nilotinib]
Safety of coadministration with yoghurt [3]: considered safe

Reference: article PMC7808986 (Clinical Pharmacokinetics, 2020)
